This assay concerns acetylcholine-induced bronchoconstriction in guinea pigs. Put plainly: Effects on acetylcholine-induced bronchoconstriction in guinea pigs. The class given is in vivo, guinea pig. The settings on record: Cavia porcellus; 24 hours after 25 μg/kg of the compounds were administered; read-out: percentage of bronchoconstriction suppression with respect to the acetylcholine stimulation. The method, then: These in vivo assays are used to evaluate the bronchoprotective effects based on the M3 muscarinic receptor antagonist activity and the β2 adrenergic receptor agonist activity of test compounds. Hartley male guinea pigs (Nippon SLC, Inc.) weighing about 400-500 g were used. The animals were anesthetized by inhalation of Fluothane (Takeda Pharmaceutical Company Limited) in a plastic box. The test compounds were dissolved in physiological saline containing DMSO, and administered through the nasal cavity into the trachea at a dose of 0.04-25 μg/kg and at a volume of 0.4 mL/kg. For control animals, solvent without a test compound was administered. In general, animals awake several minutes after completion of the administration. The animals were anesthetized with an intraperitoneal administration of 33% urethane/0.8% α-chloralose at a dose of 3 mL/kg. In order to intravenously administer acetylcholine or histamine, a catheter was inserted into the carotid artery. In order to measure artificial respiration and airway ventilation pressure, a cannula was inserted into the trachea. Artificial respiration was applied to the animals at a volume of 10 mL/kg and at a frequency of 60/minute, using a ventilator (Harvard Apparatus). The airway ventilation pressure was measured by the Konzett-Roessler method using a general respiratory function analysis system (M.I.P.S). Prior to administration of acetylcholine or histamine, the airway ventilation pressure was measured and baseline values were recorded. Then, physiological saline was administered through the carotid artery catheter at a volume of 0.4 mL/kg, and the airway ventilation pressure was measured. Bronchoconstrictor response was induced by administering acetylcholine (40 μg/kg, 0.4 mL/kg) or histamine (15 μg/kg, 0.4 mL/kg) through the carotid artery catheter one hour after the administration of the test compounds, and the airway ventilation pressure at the maximum contractile response was recorded. In addition, in order to evaluate duration of action of the test compounds, the above-mentioned dose of acetylcholine or histamine was administered, 1 hour, 6 hours, 12 hours, 18 hours, and 24 hours after the administration of test compounds, and the airway ventilation pressure was measured in the same way. The percentage of suppression by the test compounds with respect to the airway contractile response was calculated according to the following formula. (%) Percentage of the airway constriction suppression=(Airway ventilation pressure of test compound-dosed and acetylcholine- or histamine-dosed animals−Baseline value)/(Airway ventilation pressure of acetylcholine- or histamine-dosed animals−Baseline value)×100
The 50% inhibitory doses (ID50 values) of the test compounds were analyzed by a sigmoidal logistic model using XLfit4 (IDBS, Ltd.) for the percentage of the bronchoconstriction suppression at different doses of the test compounds.

Counter-ions that a name gives are not always drawn.

Turning to `COc1cc(NC(=O)CCCCc2ccc(-c3ccccc3)c(NC(=O)OC3CC[N+](C)(C)CC3)c2)c(Cl)cc1CNC[C@H](O)c1ccc(O)c2[nH]c(=O)ccc12` [Example 51, 4-({[5-(4-{[2-chloro-4-({[(2R)-2-hydroxy-2-(8-hydroxy-2-oxo-1,2-dihydroquinolin-5-yl)ethyl]amino}methyl)-5-methoxyphenyl]carbamoyl}butyl)-2-phenylphenyl]carbamoyl}oxy)-1,1-dimethylpiperidin-1-ium trifluoroacetate], the inhibition in vivo at 0.025 mg/kg is at least 50%.
To `C[N+]1(C)CCC(OC(=O)Nc2cc(CCC(=O)Nc3ccc(CNC[C@H](O)c4ccc(O)c5[nH]c(=O)ccc45)cc3)ccc2-c2ccccc2)CC1` [Example 1, 4-({[5-(2-{[4-({[(2R)-2-hydroxy-2-(8-hydroxy-2-oxo-1,2-dihydroquinolin-5-yl)ethyl]amino}methyl)phenyl]carbamoyl}ethyl)-2-phenylphenyl]carbamoyl}oxy)-1,1-dimethylpiperidin-1-ium trifluoroacetate] belongs at least 50%.

(Values after patent publication US9072734B2, “Quaternary ammonium salt compounds” (Teijin Pharma Limited, priority 2009, dated 2015).)
